What all share (type): biochemical
Test [1] has as its target T1, CYP3A4 (Homo sapiens, UniProt P08684). Put plainly: Determination of compound Kiapp against recombinant CYP3A4 enzyme (BFC fluorescent substrate). In outline:
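Kiapp derived from initial velocities over the first 5 min of BFC (5 uM) oxidation, using Morrison's tight-binding equation for non-partial and Szedlacsek's for partial inhibitors. Inhibitor first pre-incubated ≥30 min with CYP3A4 (5.5 or 8 nM, ±b5) in pH 7.0 phosphate/TCEP/2% DMF at room temperature; 200 uM NADPH initiated.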

Test [2] concerns the target T1, CYP3A4. Nature of the test: Determination of IC50 against CYP3A4 by measurement of inhibition of testosterone metabolism (human liver microsomes, 6-β-OH-testosterone by LC-MS/MS). Further details: 0.1 mg/mL human liver microsomes. The following applies: read-out: IC50 (Testo.). In outline:
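6-β-OH-testosterone formation was read by LC-MS/MS (MRM, internal standard, standard curve) after eight minutes. Reaction contained testosterone 25 μM, NADPH 1 mM and microsomal protein 0.1 mg/mL in pH 7.4 potassium phosphate (100 mM).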
For orientation: Microsomes from liver hold many membrane-bound enzymes, among them those of drug oxidation.

Test [3] concerns the target T1, CYP3A4. Put plainly: Determination of IC50 against CYP3A4 by measurement of inhibition of midazolam metabolism (human liver microsomes, 1-hydroxymidazolam by LC-MS/MS). On the set-up: 0.1 mg/mL human liver microsomes. The following applies: 2 μM midazolam, 0.1 mg/mL human liver microsomes. In outline:
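Human liver microsomes (0.1 mg/mL) incubated 8 min with 2 μM midazolam and 1 mM NADPH in 100 mM potassium phosphate, pH 7.4. 1-Hydroxymidazolam quantified by LC-MS/MS (MRM) as peak area ratio to internal standard against a metabolite standard curve.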

Setting [4] is: Baculo. enzyme preparation, read-out: Kiapp (BFC, Baculo.).
The mark [5] stands for this setting: Super. enzyme preparation, read-out: Kiapp (BFC, Super.).

Like-named read-outs stand apart in the source and are kept apart here.

T1 sequence (P08684 whole entry): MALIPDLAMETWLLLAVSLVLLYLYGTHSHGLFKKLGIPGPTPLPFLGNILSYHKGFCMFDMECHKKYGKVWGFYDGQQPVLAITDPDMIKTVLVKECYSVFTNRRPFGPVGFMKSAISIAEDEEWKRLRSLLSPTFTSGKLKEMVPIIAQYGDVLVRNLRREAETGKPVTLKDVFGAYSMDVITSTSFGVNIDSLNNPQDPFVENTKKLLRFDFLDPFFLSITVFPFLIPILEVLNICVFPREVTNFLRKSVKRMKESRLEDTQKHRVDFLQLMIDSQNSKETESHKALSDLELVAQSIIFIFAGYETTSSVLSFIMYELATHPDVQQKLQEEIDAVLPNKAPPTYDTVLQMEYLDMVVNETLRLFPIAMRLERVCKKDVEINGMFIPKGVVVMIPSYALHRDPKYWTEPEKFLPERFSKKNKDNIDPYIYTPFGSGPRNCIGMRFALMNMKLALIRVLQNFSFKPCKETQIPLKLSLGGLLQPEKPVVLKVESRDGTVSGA

As to `Cc1cc(CNC(=O)c2ccccc2S(=O)(=O)Nc2cnccc2C)ccc1F` [Example 167, N-(4-fluoro-3-methylbenzyl)-2-{[(4-methylpyridin-3-yl)amino]sulfonyl}benzamide], the Ki on CYP3A4 [1] (setting [4]) came out at 159 nM; at CYP3A4 [1] (setting [5]), 17.4 nM. Moreover, the concentration for half-maximal inhibition (IC50) at CYP3A4 [2] was determined as 16 nM; on CYP3A4 [3] it was 9 nM.

Take `Cc1ccncc1NS(=O)(=O)c1ccccc1C(=O)NCc1ccc(F)c(Cl)c1` [Example 168, N-(3-chloro-4-fluorobenzyl)-2-{[(4-methylpyridin-3-yl)amino]sulfonyl}benzamide]: the values for the Ki on CYP3A4 [1] (setting [4]) and at CYP3A4 [1] (setting [5]) were 66 nM and 11.7 nM, respectively. Moreover, the values for the IC50 at CYP3A4 [2] and at CYP3A4 [3] were 18 nM and 9 nM, respectively.

Turning to `Cc1ccncc1NS(=O)(=O)c1ccccc1C(=O)NCc1ccc(S(C)(=O)=O)cc1` [Example 169, 2-{[(4-methylpyridin-3-yl)amino]sulfonyl}-N-[4-(methylsulfonyl)benzyl]benzamide], the Ki on CYP3A4 [1] (setting [4]) is above 1000 nM; on CYP3A4 [1] (setting [5]), 187 nM. For the same compound, the IC50 at CYP3A4 [2] was 395 nM; at CYP3A4 [3], 139 nM.

Take `COCCN(C)C(=O)c1ccccc1S(=O)(=O)Nc1cnccc1C` [Example 170, N-(2-methoxyethyl)-N-methyl-2-{[(4-methylpyridin-3-yl)amino]sulfonyl}benzamide]: the results for the Ki on CYP3A4 [1] (setting [4]) and at CYP3A4 [1] (setting [5]) were above 1000 nM and 427 nM, respectively. Also, the IC50 on CYP3A4 [2] worked out at 285 nM; on CYP3A4 [3] it was 557 nM.

Turning to `Cc1ccncc1NS(=O)(=O)c1ccccc1C(=O)NCCOc1ccccc1` [Example 171, 2-{[(4-methylpyridin-3-yl)amino]sulfonyl}-N-(2-phenoxyethyl)benzamide], the Ki at CYP3A4 [1] (setting [4]) stood at 299 nM; on CYP3A4 [1] (setting [5]) it was 49.1 nM. The IC50 turned out to be 38 nM on CYP3A4 [2] and 35 nM on CYP3A4 [3].

In the case of `Cc1ccncc1NS(=O)(=O)c1ccccc1C(=O)N(C)Cc1ccc(F)c(F)c1` [Example 172, N-(3,4-difluorobenzyl)-N-methyl-2-{[(4-methylpyridin-3-yl)amino]sulfonyl}benzamide], the figures for the Ki on CYP3A4 [1] (setting [4]) and at CYP3A4 [1] (setting [5]) were 173 nM and 21.7 nM, respectively. Also, the IC50 on CYP3A4 [2] was found to be 34 nM; at CYP3A4 [3], 44 nM.

Consider `COc1cncc(NS(=O)(=O)c2ccccc2C(=O)N(C)CCOc2ccccc2)c1` [Example 173, 2-{[(5-methoxypyridin-3-yl)amino]sulfonyl}-N-methyl-N-(2-phenoxyethyl)benzamide], for which the Ki on CYP3A4 [1] (setting [4]) is 104 nM; on CYP3A4 [1] (setting [5]), 9.9 nM. The values for the IC50 at CYP3A4 [2] and on CYP3A4 [3] were 18 nM and 16 nM, respectively.

As to `COCCNC(=O)c1ccccc1S(=O)(=O)Nc1cnccc1C` [Example 174, N-(2-methoxyethyl)-2-{[(4-methylpyridin-3-yl)amino]sulfonyl}benzamide], the Ki on CYP3A4 [1] (setting [4]) is above 1000 nM; on CYP3A4 [1] (setting [5]) it was 392 nM. Further, the IC50 was 356 nM on CYP3A4 [2] and 451 nM at CYP3A4 [3].

On to `COc1cncc(NS(=O)(=O)c2ccccc2C(=O)NCc2cccc(Cl)c2F)c1` [Example 175, N-(3-chloro-2-fluorobenzyl)-2-{[(5-methoxypyridin-3-yl)amino]sulfonyl}benzamide], for which the Ki is 24 nM on CYP3A4 [1] (setting [4]) and 1.3 nM on CYP3A4 [1] (setting [5]). Further, the half-inhibitory concentration (IC50) at CYP3A4 [2] and on CYP3A4 [3] was 9 nM each time.

For the compound `COc1cncc(NS(=O)(=O)c2ccccc2C(=O)NCCO)c1` [Example 176, N-(2-hydroxyethyl)-2-{[(5-methoxypyridin-3-yl)amino]sulfonyl}benzamide], the Ki at CYP3A4 [1] (setting [4]) is above 1000 nM; at CYP3A4 [1] (setting [5]), 625 nM. The figures for the IC50 on CYP3A4 [2] and at CYP3A4 [3] were above 750 nM and 406 nM, respectively.

Turning to `Cc1ccccc1CCNC(=O)c1ccccc1S(=O)(=O)Nc1cnccc1C` [Example 177, N-[2-(2-methylphenyl)ethyl]-2-{[(4-methylpyridin-3-yl)amino]sulfonyl}benzamide], the Ki at CYP3A4 [1] (setting [4]) was 70.6 nM; at CYP3A4 [1] (setting [5]), 3.5 nM. Besides, the IC50 at CYP3A4 [2] was 12 nM; at CYP3A4 [3] it was 11 nM.

For `Cc1ccncc1NS(=O)(=O)c1ccccc1C(=O)NC(C)(C)C` [Example 178, N-(tert-butyl)-2-{[(4-methylpyridin-3-yl)amino]sulfonyl}benzamide], the Ki on CYP3A4 [1] (setting [4]) is above 1000 nM; on CYP3A4 [1] (setting [5]) it was 106 nM. In addition, the IC50 at CYP3A4 [2] came to 97 nM; at CYP3A4 [3], 70 nM.

Take `Cc1ccncc1NS(=O)(=O)c1ccccc1C(=O)NCCC(C)C` [Example 179, N-(3-methylbutyl)-2-{[(4-methylpyridin-3-yl)amino]sulfonyl}benzamide]: the values for the Ki on CYP3A4 [1] (setting [4]) and at CYP3A4 [1] (setting [5]) were 314 nM and 63.7 nM, respectively. The results for the IC50 on CYP3A4 [2] and at CYP3A4 [3] were 58 nM and 45 nM, respectively.

As to `COc1cncc(NS(=O)(=O)c2ccccc2C(=O)NCc2c(F)ccc(C)c2F)c1` [Example 180, N-(2,6-difluoro-3-methylbenzyl)-2-{[(5-methoxypyridin-3-yl)amino]sulfonyl}benzamide], the Ki came out at 92.8 nM at CYP3A4 [1] (setting [4]) and 7 nM at CYP3A4 [1] (setting [5]). Further, the IC50 on CYP3A4 [2] is 11 nM; at CYP3A4 [3], 4 nM.

As to `COc1cncc(NS(=O)(=O)c2ccccc2C(=O)NCc2cccc(F)c2F)c1` [Example 181, N-(2,3-difluorobenzyl)-2-{[(5-methoxypyridin-3-yl)amino]sulfonyl}benzamide], the Ki at CYP3A4 [1] (setting [4]) came out at 71.8 nM; on CYP3A4 [1] (setting [5]), 10.8 nM. In addition, the IC50 at CYP3A4 [2] worked out at 13 nM; at CYP3A4 [3], 7 nM.

`COc1cncc(NS(=O)(=O)c2ccccc2C(=O)NC(C)c2ccc(Cl)cc2)c1` (stereo not shown) [Example 182, N-[1-(4-chlorophenyl)ethyl]-2-{[(5-methoxypyridin-3-yl)amino]sulfonyl}benzamide]: the Ki on CYP3A4 [1] (setting [4]) is 37.4 nM; on CYP3A4 [1] (setting [5]) it was 3.5 nM. For the same compound, the IC50 is 13 nM on CYP3A4 [2] and 6 nM at CYP3A4 [3].

Consider `COc1cncc(NS(=O)(=O)c2ccccc2C(=O)NCc2ccc(F)cc2Cl)c1` [Example 183, N-(2-chloro-4-fluorobenzyl)-2-{[(5-methoxypyridin-3-yl)amino]sulfonyl}benzamide], for which the Ki at CYP3A4 [1] (setting [4]) came out at 22.6 nM; on CYP3A4 [1] (setting [5]) it was 2 nM. The IC50 came to 11 nM at CYP3A4 [2] and 5 nM on CYP3A4 [3].

On to `COc1cncc(NS(=O)(=O)c2ccccc2C(=O)NCc2cc(F)cc(F)c2)c1` [Example 184, N-(3,5-difluorobenzyl)-2-{[(5-methoxypyridin-3-yl)amino]sulfonyl}benzamide], for which the Ki at CYP3A4 [1] (setting [4]) amounted to 54.5 nM; at CYP3A4 [1] (setting [5]), 5.9 nM. The IC50 on CYP3A4 [2] was determined as 11 nM; at CYP3A4 [3], 13 nM.

In the case of `COc1cncc(NS(=O)(=O)c2ccccc2C(=O)NCc2cccc(Cl)c2Cl)c1` [Example 185, N-(2,3-dichlorobenzyl)-2-{[(5-methoxypyridin-3-yl)amino]sulfonyl}benzamide], the Ki on CYP3A4 [1] (setting [4]) came to 17.1 nM; at CYP3A4 [1] (setting [5]) it was 2.8 nM. For the same compound, the IC50 at CYP3A4 [2] was 10 nM; on CYP3A4 [3], 11 nM.

As to `COc1cncc(NS(=O)(=O)c2ccccc2C(=O)NCc2ccccc2OC)c1` [Example 186, N-(2-methoxybenzyl)-2-{[(5-methoxypyridin-3-yl)amino]sulfonyl}benzamide], the Ki at CYP3A4 [1] (setting [4]) is 171 nM; on CYP3A4 [1] (setting [5]), 9.7 nM. In addition, the IC50 at CYP3A4 [2] was 7 nM; at CYP3A4 [3], 6 nM.

On to `COc1cncc(NS(=O)(=O)c2ccccc2C(=O)NC2CCCCC2)c1` [Example 187, N-cyclohexyl-2-{[(5-methoxypyridin-3-yl)amino]sulfonyl}benzamide], for which the Ki at CYP3A4 [1] (setting [4]) turned out to be 257 nM; on CYP3A4 [1] (setting [5]), 35.9 nM. The IC50 was determined as 28 nM at CYP3A4 [2] and 22 nM on CYP3A4 [3].

On to `COc1cncc(NS(=O)(=O)c2ccccc2C(=O)NCC2(O)C3CC4CC(C3)CC2C4)c1` (stereo not shown) [Example 188, N-[(2-hydroxy-2-adamantyl)methyl]-2-{[(5-methoxypyridin-3-yl)amino]sulfonyl}benzamide], for which the Ki on CYP3A4 [1] (setting [4]) is 36.4 nM; at CYP3A4 [1] (setting [5]), 3.4 nM. Further, the IC50 is 12 nM at CYP3A4 [2] and 8 nM on CYP3A4 [3].

In the case of `CCCCC(CO)NC(=O)c1ccccc1S(=O)(=O)Nc1cncc(OC)c1` (stereo not shown) [Example 189, N-[1-(hydroxymethyl)pentyl]-2-{[(5-methoxypyridin-3-yl)amino]sulfonyl}benzamide], the Ki at CYP3A4 [1] (setting [4]) was found to be 175 nM; at CYP3A4 [1] (setting [5]), 27.4 nM. Besides, the IC50 at CYP3A4 [2] was 48 nM; at CYP3A4 [3], 24 nM.

Consider `COc1cncc(NS(=O)(=O)c2ccccc2C(=O)N[C@H](CO)CC2CCCCC2)c1` [Example 190, N-[(1S)-2-cyclohexyl-1-(hydroxymethyl)ethyl]-2-{[(5-methoxypyridin-3-yl)amino]sulfonyl}benzamide], for which the Ki on CYP3A4 [1] (setting [4]) was determined as 16.9 nM; at CYP3A4 [1] (setting [5]) it was 3.4 nM. The IC50 was 16 nM at CYP3A4 [2] and 7 nM at CYP3A4 [3].

Consider `COc1cncc(NS(=O)(=O)c2ccccc2C(=O)NCCc2ccc(F)cc2F)c1` [Example 191, N-[2-(2,4-difluorophenyl)ethyl]-2-{[(5-methoxypyridin-3-yl)amino]sulfonyl}benzamide], for which the figures for the Ki at CYP3A4 [1] (setting [4]) and at CYP3A4 [1] (setting [5]) were 59.7 nM and 5 nM, respectively. In addition, the figures for the half-inhibitory concentration (IC50) at CYP3A4 [2] and on CYP3A4 [3] were 15 nM and 10 nM, respectively.

In general, IC50 refers to the concentration needed to halve the response being measured.

(Values after patent US7868026B2, “Therapeutic compounds” (Pfizer Inc., priority 2005, dated 2011).)
